This passage reports Activity, GI50 and inhibition results from ChEMBL document CHEMBL5715949, “Discovery of a selective irreversible BMX inhibitor for prostate cancer” (ACS Chem Biol, 2013).

Active and inactive are the calls of the source. No cut-off for these calls is given here. Where only a bound is given, the exact number is not on record here.

Data set [1] relates to RV-1. Nature of the data set: Antiproliferative activity against human RV-1 cells assessed as reduction in cell viability at 1. 5 to 20 uM incubated for 3 days by tryphan blue assay. Format: functional, cell-based. Conditions: dose 5-20 µM, time 3.0 day.
For data set [2], the system named is BaF3. The data set can be described thus: Antiproliferative activity against mouse BaF3 cells expressing TEL-fused JAK2 assessed growth inhibition incubated for 2 to 5 days by CellTiter-Glo assay. Conditions: time 2-5 day. Format: functional. For orientation: In ATP-based viability assays light output follows the ATP content of the culture.
Data set [3] relates to BaF3. The data set can be described thus: Antiproliferative activity against mouse BaF3 cells expressing TEL-fused JAK1 assessed growth inhibition incubated for 2 to 5 days by CellTiter-Glo assay. Format: functional. Conditions: time 2-5 day.
In data set [4] the test system is BaF3. Nature of the data set: Antiproliferative activity against mouse BaF3 cells expressing TEL-fused BMX assessed growth inhibition incubated for 2 to 5 days by CellTiter-Glo assay. Format: functional, cell-based. The following applies: time 2-5 day.
Data set [5] deals with BaF3. Nature of the data set: Antiproliferative activity against mouse BaF3 cells expressing TEL-fused JAK3 assessed growth inhibition incubated for 2 to 5 days by CellTiter-Glo assay. Format: functional. The following applies: time 2-5 day.
Data set [6] in a line: Cytotoxicity against mouse BaF3 cells assessed growth inhibition incubated for 2 to 5 days by CellTiter-Glo assay. Format: toxicity, cell-based. The following applies: time 2-5 day.
The test system of data set [7] is BaF3. Nature of the data set: Antiproliferative activity against mouse BaF3 cells expressing TEL-fused BLK assessed growth inhibition incubated for 2 to 5 days by CellTiter-Glo assay. It counts as functional. The following applies: time 2-5 day.
For data set [8], the system named is BaF3. Nature of the data set: Antiproliferative activity against mouse BaF3 cells expressing TEL-fused TYK2 […] mutant assessed growth inhibition incubated for 2 to 5 days by CellTiter-Glo assay. It counts as functional. The following applies: time 2-5 day.
Data set [9] can be described thus: Down regulation of BMX protein expression in human RV-1 cells expressing BMX C496S mutant assessed protein expression level at 2.5 uM pre incubated for 4 hrs followed by compound wash out and additon of CHX and measured after 24 hrs by immunoblot analysis (reference value: 1.01 to 1.13). Format: functional. A general note: Immunoblotting shows a protein as a band on a membrane.

Data set [10] relates to RV-1. Nature of the data set: Down regulation of BMX protein expression in human RV-1 cells expressing BMX C496S mutant at 5 uM incubated for 72 hrs by western blot analysis. It counts as functional, cell-based.
A short description of data set [11]: Down regulation of BMX protein expression in human RV-1 cells expressing wild type BMX assessed protein expression level at 2.5 uM pre incubated for 4 hrs followed by compound wash out and additon of CHX and measured after 24 hrs by immunoblot analysis (reference value: 0.98 to 1.01). It counts as functional.
Data set [12] is described as follows: Down regulation of BMX protein expression in human RV-1 cells expressing BMX C496S mutant assessed protein expression level at 2.5 uM pre incubated for 4 hrs followed by compound wash out and additon of CHX and measured after 16 hrs by immunoblot analysis (reference value: 1.01 to 1.13). Format: functional.
The nature of data set [13]: Down regulation of BMX protein expression in human RV-1 cells expressing wild type BMX assessed protein expression level at 2.5 uM pre incubated for 4 hrs followed by compound wash out and additon of CHX and measured after 16 hrs by immunoblot analysis (reference value: 0.98 to 1.01). Format: functional.
The subject of data set [14] is RV-1. Nature of the data set: Down regulation of BMX protein expression in human RV-1 cells expressing wild type BMX at 5 uM incubated for 72 hrs by western blot analysis. Format: functional, cell-based.
Data set [15] can be described thus: Induction of cell cycle arrest in human RV-1 cells assessed as accumulation of cells at G2/M phase at 200 nM incubated for 5 days by propidium iodide staining based flow cytometric analysis (reference value: 11.4 %). Format: functional. Conditions: time 5 day. In general terms: In flow cytometry, cells or beads pass a laser one at a time.
Data set [16] is described as follows: Inhibition of PI3K/AKT/mTOR signalling pathway in human RV-1 cells assessed as decrease in 4EBP phosphorylation at T37/46 residue at 200 nM incubated for 5 days by immunoblot analysis. Format: cell-based. The following applies: time 5.0 day.
Data set [17] in a line: Induction of cell cycle arrest in human RV-1 cells assessed as accumulation of cells at S phase at 200 nM incubated for 5 days by propidium iodide staining based flow cytometric analysis (reference value: 28.9 %). Format: functional. Conditions: time 5 day.
Data set [18] is described as follows: Induction of cell cycle arrest in human RV-1 cells assessed as accumulation of cells at G1 phase at 200 nM incubated for 5 days by propidium iodide staining based flow cytometric analysis (reference value: 59.7 %). The following applies: time 5 day. Format: functional.
Data set [19] can be described thus: Inhibition of PI3K/AKT/mTOR signalling pathway in human RV-1 cells assessed as decrease in S6K phosphorylation at T389 residue at 200 nM incubated for 5 days by immunoblot analysis. Format: cell-based. Conditions: time 5.0 day.
Data set [20] concerns the target Cytoplasmic tyrosine-protein kinase BMX (Homo sapiens) (UniProt P51813). The data set can be described thus: Inhibition of BMX (unknown origin) at < 10 uM by Z'LYTE assay.
Data set [21] in a line: Inhibition of PI3K/AKT/mTOR signalling pathway in human RV-1 cells assessed as decrease in AKT phosphorylation at T308 residue at 200 nM incubated for 4 hrs by immunoblot analysis. Format: cell-based.
Data set [22] in a line: Inhibition of PI3K/AKT/mTOR signalling pathway in human RV-1 cells assessed as decrease in AKT phosphorylation at S473 residue at 200 nM incubated for 4 hrs by immunoblot analysis. It counts as cell-based.
A short description of data set [23]: Inhibition of PI3K/AKT/mTOR signalling pathway in human RV-1 cells assessed as decrease in PRAS40 phosphorylation at T246 residue at 200 nM incubated for 4 hrs by immunoblot analysis. It counts as cell-based.

As a reminder, the GI50 is the concentration giving 50% growth inhibition. A higher GI50 goes with lower sensitivity of the cells.

Chain of Cytoplasmic tyrosine-protein kinase BMX (Homo sapiens) (P51813 whole entry): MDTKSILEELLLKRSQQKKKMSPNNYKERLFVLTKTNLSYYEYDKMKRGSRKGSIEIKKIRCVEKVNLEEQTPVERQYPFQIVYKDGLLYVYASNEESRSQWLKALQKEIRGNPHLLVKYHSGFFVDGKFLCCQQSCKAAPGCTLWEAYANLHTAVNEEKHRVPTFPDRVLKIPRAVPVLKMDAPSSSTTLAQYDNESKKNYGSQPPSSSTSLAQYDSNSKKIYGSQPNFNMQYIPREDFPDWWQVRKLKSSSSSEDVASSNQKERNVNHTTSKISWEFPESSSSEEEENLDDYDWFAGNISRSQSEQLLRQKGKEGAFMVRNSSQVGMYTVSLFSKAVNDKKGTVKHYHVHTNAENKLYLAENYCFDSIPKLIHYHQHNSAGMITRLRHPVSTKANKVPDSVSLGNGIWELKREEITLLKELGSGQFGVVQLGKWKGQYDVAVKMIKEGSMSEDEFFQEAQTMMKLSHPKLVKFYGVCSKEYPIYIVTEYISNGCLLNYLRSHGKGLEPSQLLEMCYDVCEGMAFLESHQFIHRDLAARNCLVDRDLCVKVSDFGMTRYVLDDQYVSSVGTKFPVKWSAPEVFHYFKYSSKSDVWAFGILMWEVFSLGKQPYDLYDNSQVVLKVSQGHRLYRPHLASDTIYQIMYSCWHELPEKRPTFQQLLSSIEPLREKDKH

For the molecule `C=CC(=O)N1CCC[C@@H](n2nc(-c3ccc(Oc4ccccc4)cc3)c3c(N)ncnc32)C1`, the result with RV-1 [1] was Active.

Consider `CCC(=O)Nc1cc(-n2c(=O)ccc3cnc4ccc(NS(C)(=O)=O)cc4c32)ccc1C`, for which the GI50 (with BaF3 [2]; with BaF3 [3]; in the data set on BaF3 [4]; in the data set on BaF3 [5]; in data set [6]; with BaF3 [7]) was more than 10 µM each time. Moreover, in the data set on BaF3 [8], the GI50 was more than 10 µM. Besides, the Activity in [9] is reported as 0.51; in data set [11], 0.72; in data set [12], 0.8; in data set [13], 0.64. For the same molecule, the result in the data set on RV-1 [10] and in the data set with RV-1 [14] was inactive.

As for `Cl.NC1(c2ccc(-c3nc4ccn5c(=O)[nH]nc5c4cc3-c3ccccc3)cc2)CCC1`, the Activity in data set [15] is 10.9%; in [17], 29.1%; in [18], 60%. The inhibition entry in data set [16], in [19], in [21], in data set [22] and in [23] was “Active” in each case. Besides, in data set [20], the inhibition result was “inactive”.
